Columns and labels:
[1] = target: T1, Neutrophil elastase (Homo sapiens) (UniProt P08246); assay: Ratio of Kinact to KI for human neutrophil elastase
T1 sequence (whole entry): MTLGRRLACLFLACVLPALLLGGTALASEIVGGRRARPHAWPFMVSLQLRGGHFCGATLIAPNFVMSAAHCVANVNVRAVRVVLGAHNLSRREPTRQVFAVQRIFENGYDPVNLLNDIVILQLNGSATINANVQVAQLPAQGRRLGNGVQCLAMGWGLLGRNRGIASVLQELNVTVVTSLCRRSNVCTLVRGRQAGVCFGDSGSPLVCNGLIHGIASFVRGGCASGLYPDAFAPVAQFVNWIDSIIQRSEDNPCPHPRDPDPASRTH

[2] = organism: Bos taurus; assay: Inhibition of bovine trypsin; settings: TDE = time-dependent effect
[3] = target: T2, Neutrophil elastase (Homo sapiens, UniProt P08246); assay: Inhibition human neutrophil elastase
T2 sequence (P08246 whole entry): T1 sequence (whole entry)

Ratio [1]: 8.9 10^6/M/s | Activity [2]: tde | Ki [3]: 5.47 nM
SMILES: CCCC1C(=O)N(COC(=O)c2c(Cl)cccc2Cl)S(=O)(=O)N1C (stereo not drawn)

Source: ChEMBL document CHEMBL1145543, “X-ray snapshot of the mechanism of inactivation of human neutrophil elastase by 1,2,5-thiadiazolidin-3-one 1,1-dioxide derivatives” (J Med Chem, 2008)
